Patent US10647699B2, “Substituted 2-oxyimidazolylcarboxamides as pesticides” (Bayer CropScience Aktiengesellschaft, priority 2016, dated 2020)
Like-named read-outs stand apart in the source and are kept apart here.

Columns and labels:
[1] = log P by HPLC on reversed-phase columns (OECD Guideline 117), neutral range; assay type: physicochemical; conditions: for chromatographic logP: reversed-phase (C18) HPLC column, read-out: LogP-neutral
[2] = test system: Tetranychus urticae; assay: Tetranychus urticae spray test, OP-resistant, bean leaf discs; assay type: in vivo; conditions: after 6 days, application rate 500 g/ha
Experimental: Tetranychus urticae—Spray Test, OP-Resistant
(§1) To produce a suitable preparation of active compound, 1 part by weight of active compound is dissolved using the specified parts by weight of solvent and made up with water containing an emulsifier concentration of 1000 ppm until the desired concentration is attained. To produce further test concentrations, the formulation is diluted with emulsifier-containing water.
Discs of bean leaves (Phaseolus vulgaris) infested with all stages of the greenhouse red spider mite (Tetranychus urticae) are sprayed with an active compound formulation of the desired concentration.
After 6 days, the efficacy in % is determined. 100% means that all the spider mites have been killed; 0% means that no spider mites have been killed.

[3] = test system: Myzus persicae; assay: Myzus persicae spray test (MYZUPE), Chinese cabbage leaf discs; assay type: in vivo; conditions: for efficacy / pest or weed control at 500 g/ha: application rate 500 g/ha; for Emax at 100 g/ha / pest or weed control at 500 g/ha: Myzus persicae, foliar; for Emax at 100 g/ha: 6 dat, read-out: % efficacy; for pest or weed control at 500 g/ha: read-out: efficacy
Experimental: Myzus persicae—Spray Test
as §1
Discs of Chinese cabbage leaves (Brassica pekinensis) infested by all stages of the green peach aphid (Myzus persicae) are sprayed with an active compound formulation of the desired concentration.
After 5 or 6 days, the efficacy in % is determined. 100% means that all the aphids have been killed; 0% means that no aphids have been killed.
Myzus persicae—Spray Test (MYZUPE)
Discs of Chinese cabbage leaves (Brassica pekinensis) infested by all stages of the green peach aphid (Myzus persicae) are sprayed with an active compound preparation of the desired concentration.
After the desired period of time, the efficacy in % is determined. 100% means that all the aphids have been killed; 0% means that no aphids have been killed.

[4] = test system: Aphis gossypii; assay: Aphis gossypii spray test on cotton plants; assay type: in vivo; conditions: after 6 days, application rate 20 ppm, cotton plants; for pest or weed control at 20 ppm: Aphis gossypii, 144 h, read-out: efficacy (kill)
Experimental: Aphis gossypii—Spray Test
Solvent: 14 parts by weight of dimethylformamide
Emulsifier: alkylaryl polyglycol ether
To produce a suitable preparation of active compound, 1 part by weight of active compound is dissolved using the specified parts by weight of solvent and made up with water containing an emulsifier concentration of 1000 ppm until the desired concentration is attained. To produce further test concentrations, the formulation is diluted with emulsifier-containing water. If the addition of ammonium salts or/and penetrants is required, these are each added in a concentration of 1000 ppm to the formulation solution.
Cotton plants (Gossypium hirsutum) which are heavily infested by the cotton aphid (Aphis gossypii) are sprayed with an active compound formulation of the desired concentration.
After 6 days, the kill in % is determined. 100% means that all the aphids have been killed; 0% means that no aphids have been killed.

[5] = test system: Myzus persicae; assay: Myzus persicae oral test (MYZUPE O); assay type: in vivo; conditions: for efficacy / pest or weed control at 20 ppm: after 5 days, application rate 20 ppm; for Emax at 0.8 ppm / Emax at 4 ppm / pest or weed control at 20 ppm: Myzus persicae, po, 120 h; for Emax at 0.8 ppm / Emax at 4 ppm / % efficacy: MYZUPE O, 5 dat; for Emax at 0.8 ppm / Emax at 4 ppm: read-out: % efficacy; for pest or weed control at 20 ppm: read-out: efficacy
Experimental: Solvent: 100 parts by weight of acetone
To produce a suitable preparation of active compound, 1 part by weight of active compound is dissolved using the specified parts by weight of solvent and made up with water until the desired concentration is attained.
50 μl of the active compound preparation are transferred into microtitre plates and made up to a final volume of 200 μl with 150 μl of IPL41 insect medium (33%+15% sugar). Subsequently, the plates are sealed with parafilm, which a mixed population of green peach aphids (Myzus persicae) within a second microtitre plate is able to puncture and imbibe the solution through it.
After 5 days, the efficacy in % is determined. 100% means that all the aphids have been killed; 0% means that no aphids have been killed.
Myzus persicae—Oral Test (MYZUPE O)
After 5 or 6 days (dat), the efficacy in % is determined. 100% means that all the aphids have been killed; 0% means that no aphids have been killed.

| Structure (SMILES) | LogP-neutral ([1]; pH 7.8) | LogP-neutral ([1]; HPLC, neutral range pH 7.8) | efficacy (kill) [4] [%] | efficacy [5] [%] | efficacy ([3]; after 5 days) [%] | also measured |
| --- | --- | --- | --- | --- | --- | --- |
| CN(C(=O)c1cnc(Oc2cccc(Oc3ccccc3)c2)n1C)c1cccnc1 [Example II-81] | 2.72 | – | – | – | – | efficacy [2]: 100% |
| CN(C(=O)c1cnc(Oc2ccc(Cl)cc2)n1C)c1cccnc1 [Example II-9] | – | 2.09 | 100 | 100 | – | efficacy ([3]; after 6 days): 90% |
| CN(C(=O)c1cnc(Oc2cncc(Cl)c2)n1C)c1cccnc1 [Example II-41] | 1.57 | – | 100 | 100 | 100 | – |
| CSc1cccc(Oc2ncc(C(=O)N(C)c3cccnc3)n2C)c1 [Example II-26] | 2.09 | – | 100 | 100 | 100 | – |
| CN(C(=O)c1cnc(Oc2cc(F)cc(F)c2)n1C)c1cccnc1 [Example II-25] | 2.01 | – | 90 | 100 | 90 | – |
| CN(C(=O)c1cnc(OCCCF)n1C)c1cccnc1 [Example II-33] | – | 1.26 | 100 | 100 | 90 | – |
| CCN(C(=O)c1cnc(OCCCC#N)n1C)c1cccnc1 [Example II-47] | – | 1.33 | 100 | 100 | 90 | – |
| CN(C(=O)c1cnc(Oc2ccc(C#N)nc2)n1C)c1cccnc1 [Example II-58] | – | 1.1 | 100 | 100 | 90 | – |
| CN(C(=O)c1cnc(OC2CCOC2)n1C)c1cccnc1 (centres unmarked) [Example II-35] | – | 1 | 100 | 100 | 90 | – |
| CN(C(=O)c1cnc(Oc2cncc(F)c2)n1C)c1cccnc1 [Example II-42] | 1.3 | – | 100 | 100 | 90 | – |
| CCCCSc1cccc(Oc2ncc(C(=O)N(C)c3cccnc3)n2C)c1 [Example II-82] | 3.19 | – | – | 100 | 100 | efficacy [2]: 100% |
| CCN(C(=O)c1cnc(Oc2ccc(Cl)nc2)n1C)c1cccnc1 [Example II-36] | – | 1.79 | 100 | 100 | 90 | – |
| CN(C(=O)c1cnc(OCCC(F)(F)F)n1C)c1cccnc1 [Example II-23] | – | – | – | – | – | Emax at 100 g/ha ([3]; 144 h, MYZUPE, 100 g of ai/ha): 90%; pest or weed control at 500 g/ha ([3]; 144 h, after 6 days): 90%; efficacy [2]: 100%; pest or weed control at 20 ppm [4]: 95%; Emax at 0.8 ppm ([5]; 0.8 ppm): 100%; Emax at 4 ppm ([5]; 4 ppm): 100%; pest or weed control at 20 ppm [5]: 100% |
| CN(C(=O)c1cnc(Oc2ccc(F)c(Cl)c2)n1C)c1cccnc1 [Example II-89] | – | 2.17 | – | 100 | 100 | efficacy [2]: 100% |
| CC(C)Oc1ncc(C(=O)N(C)c2ccc[n+]([O-])c2)n1C [Example II-4] | 1.03 | – | 100 | 100 | 90 | – |
| Cn1c(C(=O)N(c2cccnc2)C2CC2)cnc1Oc1cccc(C(F)(F)F)c1 [Example II-94] | 2.59 | – | – | 100 | – | efficacy [2]: 90% |
| COc1ncc(C(=O)N(C)c2cccnc2)n1C [Example II-12] | – | – | – | – | – | chromatographic logP ([1]; HPLC, neutral range pH 7.8): 0.9; pest or weed control at 500 g/ha ([3]; 120 h, after 5 days): 100%; Emax at 100 g/ha ([3]; 144 h, MYZUPE, 100 g of ai/ha): 90%; pest or weed control at 20 ppm [4]: 100%; Emax at 0.8 ppm ([5]; 0.8 ppm): 100%; Emax at 4 ppm ([5]; 4 ppm): 100%; pest or weed control at 20 ppm [5]: 100% |
| CSCCOc1ncc(C(=O)N(C)c2cccnc2)n1C [Example II-6] | 1.45 | – | 99 | 100 | – | efficacy ([3]; after 6 days): 90% |
| CN(C(=O)c1cnc(Oc2cc(F)ccc2F)n1C)c1cccnc1 [Example II-14] | – | – | – | – | – | chromatographic logP ([1]; HPLC, neutral range pH 7.8): 1.87; Emax at 100 g/ha ([3]; 144 h, MYZUPE, 100 g of ai/ha): 90%; pest or weed control at 500 g/ha ([3]; 144 h, after 6 days): 100%; efficacy [2]: 90%; pest or weed control at 20 ppm [4]: 99%; Emax at 0.8 ppm ([5]; 0.8 ppm): 90%; pest or weed control at 20 ppm [5]: 100% |
| CN(C(=O)c1cnc(Oc2ccc(F)cc2F)n1C)c1cccnc1 [Example II-17] | 1.86 | – | 100 | 100 | – | efficacy ([3]; after 6 days): 100% |
| CN(C(=O)c1cnc(OCCCC#N)n1C)c1cccnc1 [Example II-38] | – | 1.08 | 98 | 100 | 90 | – |
| CCOc1ncc(C(=O)N(C)c2cccnc2)n1C [Example II-10] | 1.19 | – | 100 | 100 | – | efficacy ([3]; after 6 days): 100% |
| COCCCOc1ncc(C(=O)N(C)c2cccnc2)n1C [Example II-7] | 1.27 | – | 100 | 100 | – | efficacy ([3]; after 6 days): 100% |
| CN(C(=O)c1cnc(Oc2cc(Cl)cc(C(F)(F)F)c2)n1C)c1cccnc1 [Example II-87] | 2.87 | – | – | 100 | 90 | efficacy [2]: 90% |
| CN(C(=O)c1cnc(OCCC(F)(C(F)(F)F)C(F)(F)F)n1C)c1cccnc1 [Example II-34] | 2.51 | – | 100 | 100 | 100 | – |
| CN(C(=O)c1cnc(OCCSCC(F)(F)F)n1C)c1cccnc1 [Example II-30] | 1.97 | – | 100 | 100 | 100 | % efficacy ([3]; MYZUPE, 100 g of ai/ha, 5 dat): 90%; % efficacy ([5]; 0.8 ppm): 100%; % efficacy ([5]; 4 ppm): 100% |
